Laboratory results reported in ChEMBL document CHEMBL1126203, “Synthesis and structure-activity relationships of a series of novel benzopyran-containing platelet activating factor antagonists” (J Med Chem, 1992).

System: Rattus norvegicus
Test: Compounds were evaluated by intravenous administration along with 100 ug/kg of PAF in rat
Assay type: functional

Question: `CCOC(=O)COc1cc(C(C)CCCc2ccc(F)cc2)cc2c1C1=C(CCN(CC(=O)NC)C1)C(C)(C)O2` (stereo unspecified) was tested. Which ED50 did it give?
Answer: 0.6 mg/kg
